Data reported in patent publication US20200223889A1, “Bicyclic Compounds Capable of Binding to Melanocortin 4 Receptor” (Novo Nordisk A/S, priority 2017, published 2020).
Read-outs that look alike come from different tables or passages of the source. Positions of bridges follow the written chain, without caps; N, C: chain ends. Non-standard residues stand in square brackets, D forms with d. Residues, ends and D or L forms follow the SMILES beside them. Lys(CH2CO2H)2 = N[C@@H](CCCCN(CC(=O)O)CC(=O)O)C(=O)O; Phe(3,4-(OMe)2) = COc1ccc(C[C@H](N)C(=O)O)cc1OC; Hyp = O=C(O)[C@@H]1C[C@@H](O)CN1; Cit = NC(=O)NCCC[C@H](N)C(=O)O; Thz = O=C(O)[C@@H]1CSCN1

Assays:
human MC4R = target: T1, human MC4R (Homo sapiens, UniProt P32245); experiment: Functional cAMP assay (CisBio HTRF) in BHK cells expressing human MC4R; assay type: cell-based; conditions: for MC1R/MC4R cAMP EC50 ratio: MC1R cAMP EC50 divided by MC4R cAMP EC50
T1 construct: expressed in transfected cells
T1 sequence (P32245 whole entry): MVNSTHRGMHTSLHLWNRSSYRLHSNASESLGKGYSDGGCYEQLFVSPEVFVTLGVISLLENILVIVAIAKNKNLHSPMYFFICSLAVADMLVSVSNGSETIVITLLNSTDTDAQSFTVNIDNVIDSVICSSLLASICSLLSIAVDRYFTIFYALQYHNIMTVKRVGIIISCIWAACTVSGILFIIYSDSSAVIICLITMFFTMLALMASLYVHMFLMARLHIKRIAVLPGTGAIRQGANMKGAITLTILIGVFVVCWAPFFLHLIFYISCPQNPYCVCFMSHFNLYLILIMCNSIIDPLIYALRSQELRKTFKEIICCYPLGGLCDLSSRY
Summary of the method: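 Compound working solutions, 10-fold dilutions from 2 μM at twice final strength, in buffer containing 1 mM IBMX, were incubated 30 min at 25 °C with BHK cells stably carrying human MC4R or MC1R. Accumulated cAMP was then detected by competitive HTRF after 1 h at 25 °C and fitted by non-linear regression.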

human MC1R = target: T2, human MC1R (Homo sapiens, UniProt Q01726); experiment: Functional cAMP assay (CisBio HTRF) in BHK cells expressing human MC1R; assay type: cell-based
T2 construct: expressed in transfected cells
T2 sequence (Q01726 whole entry): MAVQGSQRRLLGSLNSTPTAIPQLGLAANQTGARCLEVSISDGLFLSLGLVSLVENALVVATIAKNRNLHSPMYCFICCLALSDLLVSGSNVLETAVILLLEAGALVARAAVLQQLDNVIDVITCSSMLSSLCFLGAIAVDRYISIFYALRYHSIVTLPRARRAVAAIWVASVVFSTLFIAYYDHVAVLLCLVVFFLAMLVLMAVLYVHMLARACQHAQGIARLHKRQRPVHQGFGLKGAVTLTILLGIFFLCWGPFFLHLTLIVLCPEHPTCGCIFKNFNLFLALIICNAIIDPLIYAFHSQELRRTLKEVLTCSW
Procedure: In order to assess the potency of the compounds on human MC1R and human MC4R cAMP signalling was measured.
cAMP induction was measured by c-AMPdynamic2 assay, HTRF 62AM4PEC system from CisBio for the human MC1R and human MC4R according to the protocol provided by the vendor. BHK cells expressing the human MC1 or MC4 receptor were generated by stable transfection with expression vectors encoding the cDNA of either MC1R or MC4R.
In details; 25 μl compound—or standard solution were added in the respective wells. Compound was reconstituted in buffer (DMEM w/o phenol red, 10 mM
Hepes, lx Glutamine, 0.1% OV-albumin1, 1 mM IBMX) and serially diluted starting at 2 μM, 10-fold seven times. Dilutions were carried out in the same aforementioned buffer to the desired working concentration ranges (2× higher than the final concentration). 25 μl cell solution was then added and allowed to incubate for 30 min while lightly shaking, at 25° C. […] The provided components for the assay were reconstituted according to the CisBio assay protocol “3.1 supplied reagents and preparation procedure” in MilliQ purification system H2O and diluted 1:20 in lysis buffer. 25 μl cAMP-d2 and 25 μl Cryptate conjugate were added to all wells.
Plates were centrifuged at 1500 rpm for 30 sec and incubated for 1 h, lightly shaking, at 25° C. in a hotel stacker. The plates were read on Mithras LB 940 provided by Berthold Technologies The data were analysed by non-linear regression analysis of binding curves, using the Windows™ program GraphPad™ Prism (GraphPad Software, USA).
The latter is used when no full curve can be obtained in the concentration ranges indicated above.

[1] = BHK cells expressing human MC1R, '>' = highest dose used with no response, read-out: MC1R cAMP EC50

Compound	EC50 (human MC4R; BHK cells expressing human MC4R, '>' = highest dose used with no response, read-out: MC4R cAMP EC50) [nM]	MC1R/MC4R cAMP EC50 ratio (human MC4R)	EC50 (human MC1R; [1]) [nM]	EC50 (human MC1R) [nM]	EC50 (human MC4R) [nM]
N=C(N)NCCC[C@@H]1NC(=O)[C@@H](Cc2ccccc2)NC(=O)[C@@H]2C[C@@H](O)CN2C(=O)[C@@H]2CSSC[C@H](NC(=O)[C@H](Cc3c[nH]c4ccccc34)NC1=O)C(=O)N1C[C@H](O)C[C@H]1C(=O)N[C@H](Cc1ccccc1)C(=O)N[C@@H](CCCNC(=N)N)C(=O)N[C@@H](Cc1c[nH]c3ccccc13)C(=O)N2 [Chem. 27, c[c[Cys-Hyp-D-Phe-Arg-Trp-Cys]- Hyp-D-Phe-Arg-Trp]] (cyclo(C[Hyp][dF]RWC[Hyp][dF]RW); disulfide 1-6)	0.24	212	50.9		
C[C@@H]1NC(=O)[C@@H]2CSSC[C@H](NC(=O)[C@H](Cc3c[nH]c4ccccc34)NC(=O)[C@H](CCCNC(N)=O)NC(=O)[C@@H](Cc3ccccc3)NC(=O)[C@H](Cc3c[nH]cn3)NC1=O)C(=O)N[C@@H](C)C(=O)N[C@@H](CCC(=O)O)C(=O)N[C@@H](CCC(=O)O)C(=O)N[C@@H](CCC(=O)O)C(=O)N[C@@H](Cc1c[nH]c3ccccc13)C(=O)N2 [Chem. 45, c[c[Cys-Ala-His-D-Phe-Cit-Trp-Cys]- Ala-Glu-Glu-Glu-Trp]] (cyclo(AEEEWCAH[dF][Cit]WC); disulfide 6-12)		>2	> 100		
N=C(N)NCCC[C@@H]1NC(=O)[C@@H](Cc2ccccc2)NC(=O)[C@H](Cc2c[nH]cn2)NC(=O)[C@@H]2CSSC[C@H](NC(=O)[C@H](Cc3c[nH]c4ccccc34)NC1=O)C(=O)N[C@@H](Cc1c[nH]cn1)C(=O)N[C@H](Cc1ccccc1)C(=O)N[C@@H](CCCNC(=N)N)C(=O)N[C@@H](Cc1c[nH]c3ccccc13)C(=O)N2 [Chem. 49, c[c[Cys-His-D-Phe-Arg-Trp-Cys]-His- D-Phe-Arg-Trp]] (cyclo(CH[dF]RWCH[dF]RW); disulfide 1-6)		>4		> 5.5	
O=C(O)CC[C@@H]1NC(=O)[C@@H]2CSSC[C@H](NC(=O)[C@H](Cc3c[nH]c4ccccc34)NC(=O)[C@H](Cc3c[nH]cn3)NC(=O)[C@@H](Cc3ccccc3)NC(=O)[C@H](Cc3c[nH]cn3)NC1=O)C(=O)N[C@@H](CCC(=O)O)C(=O)N[C@@H](Cc1c[nH]cn1)C(=O)N[C@H](Cc1ccccc1)C(=O)N[C@@H](Cc1c[nH]cn1)C(=O)N[C@@H](Cc1c[nH]c3ccccc13)C(=O)N2 [Chem. 53, c[c[Cys-Glu-His-D-Phe-His-Trp-Cys]- Glu-His-D-Phe-His-Trp]] (cyclo(CEH[dF]HWCEH[dF]HW); disulfide 1-7)		>1	> 10		
COc1ccc(C[C@@H]2NC(=O)[C@H](CCCNC(=N)N)NC(=O)[C@@H](Cc3ccccc3)NC(=O)[C@H](Cc3c[nH]cn3)NC(=O)[C@H](C)NC(=O)[C@@H]3CSSC[C@H](NC2=O)C(=O)N[C@@H](C)C(=O)N[C@@H](CCCCN)C(=O)N[C@@H](CCCCN)C(=O)N[C@@H](CCCCN)C(=O)N[C@@H](Cc2c[nH]c4ccccc24)C(=O)N3)cc1OC [Chem. 67, c[c[Cys-Ala-His-D-Phe-Arg-3,4- DiMeo-Phe-Cys]-Ala-Lys-Lys-Lys- Trp]] (cyclo(AH[dF]R[Phe(3,4-(OMe)2)]CAKKKWC); disulfide 6-12)		>18	> 55		
O=C1N[C@H]2CSSC[C@H](NC(=O)[C@H](Cc3c[nH]c4ccccc34)NC(=O)[C@H](Cc3c[nH]cn3)NC(=O)[C@@H](Cc3ccccc3)NC(=O)[C@H](Cc3c[nH]cn3)NC(=O)[C@@H]3CSCN3C2=O)C(=O)N2CSC[C@H]2C(=O)N[C@@H](Cc2c[nH]cn2)C(=O)N[C@H](Cc2ccccc2)C(=O)N[C@@H](Cc2c[nH]cn2)C(=O)N[C@H]1Cc1c[nH]c2ccccc12 [Chem. 91, c[c[Cys-THAZ-His-D-Phe-His-Trp- Cys]-THAZ-His-D-Phe-His-Trp]] (cyclo(C[Thz]H[dF]HWC[Thz]H[dF]HW); disulfide 1-7)		>14		> 10	
C[C@@H]1NC(=O)[C@H](C)NC(=O)[C@@H]2CSSC[C@H](NC(=O)[C@H](Cc3c[nH]c4ccccc34)NC(=O)[C@H](C)NC(=O)[C@H](CCCCN(CC(=O)O)CC(=O)O)NC1=O)C(=O)N1CSC[C@H]1C(=O)N[C@@H](Cc1c[nH]cn1)C(=O)N[C@H](Cc1ccccc1)C(=O)N[C@@H](Cc1c[nH]cn1)C(=O)N[C@@H](Cc1c[nH]c3ccccc13)C(=O)N2 [Chem. 104, c[c[Cys-THAZ-His-D-Phe-His-Trp- Cys]-Ala-Ala-Lys(CH2COOH)2-Ala- Trp]] (cyclo(AA[Lys(CH2CO2H)2]AWC[Thz]H[dF]HWC); disulfide 6-12)		167		> 100	0.6
C[C@@H]1NC(=O)[C@H](CCC(=O)O)NC(=O)[C@H](CCC(=O)O)NC(=O)[C@H](C)NC(=O)[C@@H]2CSSC[C@H](NC(=O)[C@H](Cc3c[nH]c4ccccc34)NC1=O)C(=O)N1CSC[C@H]1C(=O)N[C@@H](Cc1c[nH]cn1)C(=O)N[C@H](Cc1ccccc1)C(=O)N[C@@H](Cc1c[nH]cn1)C(=O)N[C@@H](Cc1c[nH]c3ccccc13)C(=O)N2 [Chem. 105, c[c[Cys-THAZ-His-D-Phe-His-Trp- Cys]-Ala-Glu-Glu-Ala-Trp]] (cyclo(AEEAWC[Thz]H[dF]HWC); disulfide 6-12)		>15		> 100	
C[C@@H]1NC(=O)[C@H](CC(=O)O)NC(=O)[C@H](CC(=O)O)NC(=O)[C@H](C)NC(=O)[C@@H]2CSSC[C@H](NC(=O)[C@H](Cc3c[nH]c4ccccc34)NC1=O)C(=O)N1CSC[C@H]1C(=O)N[C@@H](Cc1c[nH]cn1)C(=O)N[C@H](Cc1ccccc1)C(=O)N[C@@H](Cc1c[nH]cn1)C(=O)N[C@@H](Cc1c[nH]c3ccccc13)C(=O)N2 [Chem. 106, c[c[Cys-THAZ-His-D-Phe-His-Trp- Cys]-Ala-Asp-Asp-Ala-Trp]] (cyclo(ADDAWC[Thz]H[dF]HWC); disulfide 6-12)		>10		> 100	10.6
C[C@@H]1NC(=O)[C@H](CCC(=O)O)NC(=O)[C@H](CC(=O)O)NC(=O)[C@H](C)NC(=O)[C@@H]2CSSC[C@H](NC(=O)[C@H](Cc3c[nH]c4ccccc34)NC1=O)C(=O)N1CSC[C@H]1C(=O)N[C@@H](Cc1c[nH]cn1)C(=O)N[C@H](Cc1ccccc1)C(=O)N[C@@H](Cc1c[nH]cn1)C(=O)N[C@@H](Cc1c[nH]c3ccccc13)C(=O)N2 [Chem. 107, c[c[Cys-THAZ-His-D-Phe-His-Trp- Cys]-Ala-Asp-Glu-Ala-Trp]] (cyclo(ADEAWC[Thz]H[dF]HWC); disulfide 6-12)		>10		> 100	10.6
C[C@@H]1NC(=O)[C@H](CC(=O)O)NC(=O)[C@H](CCC(=O)O)NC(=O)[C@H](C)NC(=O)[C@@H]2CSSC[C@H](NC(=O)[C@H](Cc3c[nH]c4ccccc34)NC1=O)C(=O)N1CSC[C@H]1C(=O)N[C@@H](Cc1c[nH]cn1)C(=O)N[C@H](Cc1ccccc1)C(=O)N[C@@H](Cc1c[nH]cn1)C(=O)N[C@@H](Cc1c[nH]c3ccccc13)C(=O)N2 [Chem. 108, c[c[Cys-THAZ-His-D-Phe-His-Trp- Cys]-Ala-Glu-Asp-Ala-Trp]] (cyclo(AEDAWC[Thz]H[dF]HWC); disulfide 6-12)		>40		> 100	
